The values below come from patent EP0168112A2, “Alpha-L-aspartyl-D-phenylglycine esters and amides useful as high intensity sweeteners” (THE PROCTER & GAMBLE COMPANY, priority 1984, dated 1986).

Like-named read-outs stand apart in the source and are kept apart here. Square brackets hold non-standard residues; d marks the D form. Peptide text beside a SMILES is read from it. Phg = N[C@H](C(=O)O)c1ccccc1

The conditions of data set [1]: cited from earlier work; for sweetness intensity: prior art value; for taste: taste description from prior art.
The nature of data set [2]: Sweetness intensity relative to sucrose, taste panel comparison with five sucrose standard samples. Type of data set: in vivo, Male subjects. The following applies: relative to sucrose (w/v); test sample about 22°C, prepared at a concentration equal to about 8-10% sucrose. The method, then: The subjects were asked to taste and expectorate about 10 ml of a test sample (temperature of about 22°C) having dissolved therein the ester or amide. The subjects were then asked to compare the sweetness of the test sample with five standard samples which contained increasing amounts of sucrose. The standard samples were letter coded A, B, C, D and E and were designated on a ballot by a closed linear scale. Sweetness intensity of the test sample was recorded by the subject making a mark on the linear scale at a point they considered equal in sweetness among the standard samples; interpolation between standards was encouraged. After completion of the panel, a five point numeric scale was superimposed on the linear scales to obtain numerical data; data were averaged and recorded to the nearest 0.25 unit. Equivalent sucrose sweetness was determined by referring to graphs of (wlv) sucrose concentration in the standard samples versus a linear numeric scale.
Sweetness intensity was calculated by dividing the concentration (w/v) of perceived sweeteness by the concentration (wlv) of the ester or amide required to produce that sweetness. […] The test sample was prepared at a concentration which would be equal to about 8-10% sucrose.

The nature of data set [3]: Solubility for the sweetness intensity measurement. The settings on record: sweetness intensity test sample. Type of data set: physicochemical.
Data set [4] is described as follows: Sweetness intensity based on informal panel testing. Type of data set: in vivo.
For data set [5] the following is noted: in most carbonated beverages; background statement; cited from earlier work.

For `C[C@@H](NC(=O)[C@@H](N)CC(=O)O)C(=O)NC1C(C)(C)S(=O)(=O)C1(C)C`, the sweetness intensity in data set [1] is reported as 1000 times that of sucrose. Regarding `C[C@@H](NC(=O)[C@@H](N)CC(=O)O)C(=O)NC1C(C)(C)SC1(C)C` [2,2,4,4-tetramethylthietan-3-yl], the sweetness intensity in data set [1] is recorded as 2000 times that of sucrose.

Regarding `CC1CCC(C)C1NC(=O)[C@@H](C)NC(=O)[C@@H](N)CC(=O)O` (stereo partly drawn) [2,5 dimethylcyclopentyl], the sweetness intensity in data set [1] is recorded as 520 times that of sucrose.

As for `CC1CCCC(C)C1NC(=O)[C@@H](C)NC(=O)[C@@H](N)CC(=O)O` (stereo partly drawn) [2,6-dimethylcyclohexyl], in data set [1], the sweetness intensity is listed as 600 times that of sucrose. In the case of `CC1(C)[C@@H]2CC[C@@](C)(C2)[C@@H]1OC(=O)[C@H](NC(=O)[C@@H](N)CC(=O)O)c1ccccc1` [Example 1, alpha-L-Aspartyl-D-phenylglycine-(-)-alpha-fenchyl ester], in data set [2], the sweetness intensity was 1750 X.

`CC(OC(=O)[C@H](NC(=O)[C@@H](N)CC(=O)O)c1ccccc1)C(C)(C)C` (stereo partly drawn) [Example 2, 3,3-Dimethyl-2-butyl ester]: in data set [2], the sweetness intensity turned out to be 30 X. In data set [2], `CC1CCC(C)C1OC(=O)[C@H](NC(=O)[C@@H](N)CC(=O)O)c1ccccc1` (stereo partly drawn) [Example 4, 2,5-Dimethylcyclopentyl ester] displayed a sweetness intensity of 370 X.

Turning to `CC1CCCC(C)C1NC(=O)[C@H](NC(=O)[C@@H](N)CC(=O)O)c1ccccc1` (stereo partly drawn) [Example 10, 2,6-Dimethylcyclohexyl amide], in data set [3], the solubility result is listed as “too Insoluble for an accurate sweetness intensity measurement”. `CC1(C)SC(C)(C)C1NC(=O)[C@H](NC(=O)[C@@H](N)CC(=O)O)c1ccccc1` [Example 11, alpha-L-Aspartyl-D-phenylglycine-2,2,4,4-tetramethylthietan-3-yl amide] registered a sweetness intensity in data set [4] of 100 X. Molecule `N[C@@H](CC(=O)O)C(=O)N[C@@H](C(=O)NC(C1CC1)C1CC1)c1ccccc1` [Example 12, alpha-L-Aspartyl-D-phenylglycinedicyclopropylcarbinyl amide] had a sweetness intensity in data set [2] of 80 X. As to `CCOC(=O)C(NC(=O)[C@@H](N)CC(=O)O)C(=O)OC1C2(C)CCC(C2)C1(C)C` (stereo partly drawn) [R' is fenchyl and R is ethyl], in data set [1], the sweetness intensity is given as 4200-5400 times that of sucrose. `COC(=O)C(NC(=O)[C@@H](N)CC(=O)O)C(=O)OC1C2(C)CCC(C2)C1(C)C` (stereo partly drawn) [R' is fenchyl and R is methyl]: the sweetness intensity in data set [1] is 22,200-33,200 times that of sucrose. On to `O=C1NS(=O)(=O)c2ccccc21` [Saccharin, saccharin], for which, in data set [1], the sweetness intensity entry is reported as “about 300 times that of sucrose”. For the molecule `COC(=O)[C@H](Cc1ccccc1)NC(=O)[C@@H](N)CC(=O)O` [aspartame, alpha-L-aspartyl-L-phenylalanine methyl ester] (H-Asp-Phe-OMe), in data set [1], the sweetness intensity is reported as 150-200 times that of sucrose. For the same molecule, the hydrolytic stability entry in data set [5] is “hydrolytically unstable”. `C[C@@H](NC(=O)[C@@H](N)CC(=O)O)C(=O)NC(C1CC1)C1CC1` [dicyclopropylcarbinyl]: in data set [1], the sweetness intensity is reported as 1200 times that of sucrose. Regarding `COC(=O)[C@@H](Cc1ccccc1)NC(=O)[C@@H](N)CC(=O)O` [methyl ester of L-aspartyl-D-phenylalanine] (H-Asp-[dF]-OMe), the taste result in data set [1] is listed as “bitter”. With `COC(=O)[C@@H](NC(=O)[C@@H](N)CC(=O)O)c1ccccc1` [methyl ester of L-aspartyl-L-phenylglycine] (H-Asp-[Phg]-OMe), in data set [1], the sweetness intensity is listed as 100-1000 times that of sucrose and the taste entry was “quite sweet”. In turn, (±) endo-Norbornyl ester [Example 5] returned a sweetness intensity in data set [2] of 20 X. Regarding (±) exo-Norbornyl ester [Example 6], in data set [2], the sweetness intensity is recorded as 150 X. On to “alpha-L-Aspartyl-D-phenylglycine-(+)-beta-fenchyl ester [Example 8b]”, for which the sweetness intensity in data set [2] was found to be 5000 X.

“alpha-L-Aspartyl-D-phenylglycine-(-)-beta-fenchyl ester [Example 8a]” registered a sweetness intensity in data set [2] of 600 X. As for “alpha-L-Aspartyl-D-phenylglycine-alpha-7-oxa-fenchyl ester [Example 14]”, the sweetness intensity result in data set [4] is recorded as “approximately 1000 X”.
